Results as given in ChEMBL document CHEMBL2311472, “Discovery and optimization of potent broad-spectrum arenavirus inhibitors derived from benzimidazole and related heterocycles” (Bioorg Med Chem Lett, 2013).

How the values were obtained:
Lassa virus = assay: Antiviral activity against Lassa virus by pseudo-type antiviral assay; format: functional, organism-based; details: Mammarenavirus lassaense
Sabia virus = assay: Antiviral activity against Sabia virus; format: functional
Machupo mammarenavirus = assay: Antiviral activity against Machupo virus; format: functional; details: Mammarenavirus machupoense
Guanarito virus = assay: Antiviral activity against Guanarito virus; format: functional; details: Mammarenavirus guanaritoense
Junin virus = assay: Antiviral activity against Junin virus; format: functional, organism-based; details: Mammarenavirus juninense

Row | Structure (SMILES) | EC50 (Lassa virus) [nM] | also measured
1 | CCOc1ccc(-n2c(C#N)nc3cc(NCc4ccc(CC)cc4)ccc32)cc1 | 1.6 | 
2 | CCOc1ccc(-n2cnc3cc(NCc4ccc(CC)cc4)cc(C(=O)O)c32)cc1 | > 50000 | 
3 | CCOc1ccc(-n2ccc3cc(NCc4ccc(CC)cc4)cnc32)cc1 | 25 | 
4 | CCOc1ccc(-n2cnc3cc(NCc4ccc(CC)cc4)cc(C(=O)OC)c32)cc1 | 220 | 
5 | CCOc1ccc(-n2cnc3cc(NCc4ccc(CC)cc4)cnc32)cc1 | 0.16 | EC50 (Sabia virus): 54 nM; EC50 (Machupo mammarenavirus): 28 nM; EC50 (Guanarito virus): 3.5 nM; EC50 (Junin virus): 7.9 nM
6 | CCOc1ccc(-n2nnc3cc(NCc4ccc(CC)cc4)cnc32)cc1 | 0.87 | EC50 (Sabia virus): 93 nM; EC50 (Machupo mammarenavirus): 81 nM; EC50 (Guanarito virus): 7.7 nM; EC50 (Junin virus): 14 nM
7 | CCOc1ccc(-n2cnc3cc(NCc4ccc(CC)cc4)cnc32)cc1CN | 58 | 
8 | CCOc1ccc(-n2c(C(=O)O)nc3cc(NCc4ccc(CC)cc4)ccc32)cc1 | 1.5 | 
9 | CCOc1ccc(-c2cnc3cc(NCc4ccc(CC)cc4)ccn23)cc1 | 9.3 | 
10 | CCc1ccc(CNc2cnc3c(c2)ncn3-c2ccc(OCCN(C)C)cc2)cc1 | 80 | 
11 | CCOc1ccc(-n2c(N)nc3cc(NCc4ccc(CC)cc4)ccc32)cc1 | 29 | 
12 | CCOc1ccc(Cn2cnc3cc(NCc4ccc(CC)cc4)cnc32)cc1 | 1600 | 
13 | CCOc1ccc(-n2cnc3cc(NCCc4ccc(CC)cc4)cnc32)cc1 | 65 | 
14 | CCOc1ccc(-n2ccc3cc(NCc4ccc(CC)cc4)ccc32)cc1 | 69 | 
15 | CCOc1ccc(-n2cnc3cc(NCc4ccc(CC)c(N(C)C)c4)cnc32)cc1 | 5.9 | 
16 | CCOc1ccc(-n2c(C(=O)O)nc3cc(NCc4ccc(CC)cc4)cnc32)cc1 | 0.16 | 
17 | CCOc1ccc(-n2cnc3cc(NCc4ccc(CC)cc4)ccc32)cc1 | 1.5 | 
18 | COc1ccc(-n2ncc3cc(NCc4ccc(C(C)C)cc4)ccc32)cc1 | 130 | 
19 | CCOc1ccc(-n2cnc3cc(NCc4ccc(CC)cc4)cc(N)c32)cc1 | 620 | 

Row | Structure (SMILES) | EC50 (Lassa virus) [nM] | also measured
20 | CCOc1ccc(-n2cnc3nc(NCc4ccc(CC)cc4)ccc32)cc1 | 6.8 | 
21 | CCOc1ccc(-n2c(C)nc3cc(NCc4ccc(CC)cc4)ccc32)cc1 | 1.9 | 
22 | CCc1ccc(CNc2cnc3c(c2)ncn3-c2ccc(O)cc2)cc1 | 19 | 
23 | CCOc1ccc(-c2c[nH]c3cc(NCc4ccc(CC)cc4)ccc23)cc1 | 13 | EC50 (Sabia virus): 3.9 nM; EC50 (Machupo mammarenavirus): 40 nM; EC50 (Junin virus): 12 nM
24 | CCOc1ccc(-n2cnc3cc(NCc4ccc(CC)cc4)cnc32)cc1N(C)C | 250 | 
25 | CCOc1ccc(-n2c(O)nc3cc(NCc4ccc(CC)cc4)ccc32)cc1 | 1800 | 
26 | CCOc1ccc(-n2nnc3cc(NCc4ccc(CC)cc4)ccc32)cc1 | 6.1 | 
27 | COc1ccc(-n2cnc3cc(NCc4ccc(C(C)C)cc4)ccc32)cc1 | 1.4 | EC50 (Sabia virus): 21 nM; EC50 (Machupo mammarenavirus): 3.1 nM; EC50 (Guanarito virus): 0.44 nM; EC50 (Junin virus): 0.62 nM
28 | CCc1ccc(CNc2cnc3c(c2)ncn3-c2ccc(NC(C)=O)cc2)cc1 | 11 | 
29 | CCOc1ccc(-n2c(C(N)=O)nc3cc(NCc4ccc(CC)cc4)ccc32)cc1 | 9.2 | 
30 | CCc1ccc(CNc2cnc3c(c2)ncn3-c2ccc(OCCCO)cc2)cc1 | 13 | 
31 | CCOc1ccc(-n2cnc3cc(NCc4ccc(CC)c(CN)c4)cnc32)cc1 | 26 | 
32 | CCOc1ccc(-n2cnc3cc(/N=C/c4ccc(CC)cc4)cnc32)cc1 | 4300 | 
33 | CCOc1ccc(-n2cnc3cc(NCc4ccc(CC)cc4)cnc32)c(CN)c1 | 1500 | 
34 | CCOc1ccc(-n2cnc3cc(NCc4ccc(CC)cc4)cnc32)cn1 | 9 | 
35 | CCOc1ccc(-n2cnc3cc(NCCCc4ccc(CC)cc4)cnc32)cc1 | 210 | 
36 | CCCc1nc2cc(NCc3ccc(CC)cc3)ccc2n1-c1ccc(OCC)cc1 | 170 | 
37 | CCOc1ccc(-n2c(C(N)=O)nc3cc(NCc4ccc(CC)cc4)cnc32)cc1 | 4.4 | 
38 | CCOc1ccc(-n2cnc3cc(NCc4ccc(CC)cc4)cnc32)nc1 | 0.98 | 
